Assay results published in patent EP3771719A1, “A PEPTIDE BINDING TO TAU-PROTEIN” (Hochschule für angewandte Wissenschaften Fachhochschule …, priority 2019, dated 2021).
Non-standard residues stand in square brackets, D forms with d. No end group written: not given here.

Tests used:
tau-protein = test: ThT aggregation assay of tau-protein with heparin; type: biochemical; details: 24 µM tau, 6 µM heparin, 36 h
Description: A ThT-aggregation assay of tau was performed for quantifying the relative content of fibrils in the presence of peptides and heparin (6 µM). The concentration of tau-protein was 24 µM, the peptides were added at a ratio of 1:5 and 1:10 (tau-protein:peptide). The fluorescence measured of 24 µM tau-protein after incubation for 36h was arbitrarily set to be 100%, and the measured values and standard deviations of the other incubations are indicated as percentage proportions of this maximum value.
A ThT-aggregation assay of tau was performed for quantifying the relative content of fibrils in the presence of peptides and heparin (6 µM). Here, the D-enantiomers of the peptides and their retro-inverso-versions are used. "retro-inverso-version" as used herein, refers to a sequence wherein the amino acid sequence of one peptide, as read from its N-terminus to its C-terminus, has been reversed, such that the N-terminus and C-terminus of the peptide sequence have been inverted. The concentration of tau-protein was 24 µM, and the peptides MMD2 and MMD2rev were added at a ratio of 1:10. The peptides MMD3 and MMD3rev were added at a ratio of 1:5 and 1:10 (tau-protein:peptide). The fluorescence of tau-protein at 24 µM after an incubation of 36 h was arbitrarily set to be 100% and the measured values and standard deviations of the other incubations are indicated as percentage proportions of this maximum value.
To test the ability of the L-synthesized peptides to inhibit the aggregation of tau in vitro, thioflavin assays were performed. The peptides were added to the aggregation mix in a molar ratio of 1:5 and/or 1:10 (tau:peptide), respectively. As positive control, tau was incubated with heparin without addition of peptides, negative controls were tau alone with THT and buffer including THT. The relative fluorescence of the positive control was set to be 100% after 36 h of incubation and the relative fluorescence of the samples was normalized to the positive control.
To investigate the potential of the selected D-peptides MMD2, MMD2rev, MMD3 and MMD3rev to inhibit fibrillization of full-length tau, thioflavin fluorescence assays were performed. Tau aggregation was initiated by addition heparin to tau protein in a concentration of 24 µM, the mixtures were incubated in absence or presence of the respective peptide in a molar ratio of 1:10, in case of MMD2 as well as MMD2rev, and in molar ratio 1:10 and 1:5, in case of MMD3 and MMD3rev. After 36 hours of incubation, the fluorescence of the tau and heparin control sample reached a saturation level, and the value of fluorescence was set to 100%. […] MMD2 reduce the aggregation of tau to about 90% and MMD2rev reduce the aggregation to about 70%. […] The inventors observed also that ThT fluorescence decreased with increasing concentration of the MMD3 and MMD3rev signifying a robust dose-dependent inhibition of full-length tau aggregation.

tau monomers = test: ELISA binding of FAM-labeled peptides to tau monomers; details: plate coated with 20 µg/ml tau monomers, FAM-labeled peptide in increasing concentrations, absorbance at 450 nm
Description: (§1) Peptides were used that had been labeled with a FAM (=5/6-carboxyfluorescein) at the C-terminus. The peptides used were MM2 (= LTPHKHHKHLHA as L-enantiomer = SEQ ID NO: 6) and MM3 (SEQ ID NO: 1), to which a Lys (FAM)-NH2-residue had been attached at the C-terminus, respectively. The wells of a 96-well plate were coated with 20 µg/ml monomeric tau-protein or tau-fibrils and were incubated for 1h. After washing three times with PBS-T (phosphate-buffered saline with 0.1 % tween), the free binding sites were blocked for over a period of 1 hour. The respective peptides MM2-Lys(FAM)-NH2 and MM3-Lys(FAM)-NH2 were added (1 µg/ml, 5 µg/ml, 10 µg/ml, 20 µg/ml) and incubated for 1h. A specific anti-FITC-HRP antibody (anti-fluorescein-isothiocyanate-horseradish-peroxidase) was added in 1:1000 dilution and was incubated for 1h. Thereafter, TMB-substrate was added and incubated for 20 min. After […] of enzyme reaction by addition of 20% sulfuric acid, the absorption at 450 nm was determined. Measurements were performed in triplicate and the average values of the measured absorption of these triplicate samples as well as their standard deviations are shown in figure 1.
(§2) The binding affinity of MMD2 and MMD3 was tested using ELISA. […] The detection was done with anti-FAM HRP antibodies and absorbance was measured at 450 nm. […]

tau fibrils = test: ELISA binding of FAM-labeled peptides to tau fibrils; details: plate coated with 20 µg/ml tau fibrils, FAM-labeled peptide in increasing concentrations, absorbance at 450 nm
Description: as §1, §2

PHF6* = test: Thioflavin T test of PHF6* aggregation; type: biochemical; details: 1000 µM peptide, 100 µM PHF6*, 10 µM thioflavin T, RT, ThT fluorescence monitored over 30 h
Description: PHF6*-fibrils are fibrils comprising the D-enantiomeric version of tau-peptide VQIINK (SEQ ID NO: 5). Peptides MMD3 and MMD3rev were diluted in sodium phosphate buffer to 1000 µM, and 100 µM PHF6*-solution and 10 µM thioflavin T were added. 100 µM PHF6* and 10 µM thioflavin in Napi-buffer was used as positive control. The negative control was 10 µM thioflavin T in Napi-buffer only. The samples were pipetted into a black 96-well µclear flat-bottom plate and incubated for 30 h,the relative fluorescence (excitation = 440 nm and emission = 480 nm) was determined. Triplicate measurements were performed for each sample.
To test whether MMD3 and MMD3rev reduce PHF6* fibril formation, 1000 µM from the respective peptides were incubated with 100 µM PHF6* at RT, as positive control PHF6* was incubated alone. The relative fluorescence of THT was monitored over 30 h.

PHF6* fibrils = test: ELISA binding of FAM-labeled peptide to PHF6* fibrils; details: plate coated with 50 µg/ml PHF6* fibrils, FAM-labeled peptide 10, 20, 50 µg/ml, absorption at 450 nm
Description: As used herein, "PHF6*-fibrils" are fibrils comprising the D-enantiomeric version of tau-peptide VQIINK (SEQ ID NO: 5). The wells of a 96-well plate were coated with 50 µg/ml PHF6*-fibrils and were incubated for 1h. After washing of wells three times with PBS-T (phosphate buffer saline with 0.1 % tween), the free binding sites were blocked for 1 hour. Peptide MMD3-Lys(FAM)-NH2 was added (10 µg/ml, 20 µg/ml and 50 µg/ml) and incubated for 1 h. A specific anti-FITC-HRP-antibody was added at a dilution of 1:1000 and incubated for 1h. Thereafter, TMB-substrate solution was added and incubated for 20 min. After termination of the enzyme reaction by additional 20 % sulfuric acid, absorption at 450 nm was measured. The absorption of the negative control (buffer only) was substracted. Triplicate measurements were performed, at the average values of the measured absorptions of the different samples are shown as well as their respective standard deviations.
To evaluate the binding properties of MMD3 to PHF6* fibrils, ELISA was performed with FAM-labeled version of the peptide. […] The peptide was added in an increasing concentration, the bound peptide was detected with anti-FAM antibodies. After adding the substrate, the absorption at 450 nm, which represents the binding affinities, was measured.

Substance	aggregation of tau (relative ThT fluorescence, positive control tau + heparin = 100%) (tau-protein; molar ratio 1:10 (tau:peptide))	binding to tau monomers (tau monomers)	binding to tau fibrils (tau fibrils)	inhibition of PHF6* fibril formation (PHF6*)	aggregation of tau (relative ThT fluorescence, positive control tau + heparin = 100%) (tau-protein; molar ratio 1:5 (tau:peptide))	binding to PHF6* fibrils (PHF6* fibrils)
ahlhkhhkhptl (AHLHKHHKHPTL; all D-amino acids) [MMD2rev, reference compound]	about 70%					
ltphkhhkhlha [MMD2, reference compound]	about 90%	binding could be demonstrated	binding could be demonstrated			
ywvsthraklpd ([dY][dW][dV][dS][dT][dH][dR][dA][dK][dL][dP][dD]) [MMD3rev]	inhibited formation of tau aggregates significantly			did indeed inhibit the formation of PHF6* fibrils	inhibited formation of tau aggregates significantly	
dplkarhtsvwy ([dD][dP][dL][dK][dA][dR][dH][dT][dS][dV][dW][dY]) [MMD3]	inhibited formation of tau aggregates significantly	binding could be demonstrated	binding could be demonstrated	did indeed inhibit the formation of PHF6* fibrils	inhibited formation of tau aggregates significantly	bound to PHF6* fibrils in concentration-dependent manner
DPLKARHTSVWY [MM3]	significantly inhibiting tau fibrils formation				significantly inhibiting tau fibrils formation	
LTPHKHHKHLHA [MM2, reference compound]	nearly complete inhibition				about 50%	
